Each structure is given as a SMILES string.

In this test the target is T1, KRAS G12C 1-169, his-tagged protein, GDP-loaded (Homo sapiens, UniProt P01116, G12C).
T1 construct: KRAS G12C 1-169, his-tagged protein, GDP-loaded
Put plainly: Biochemical assay: covalent modification of KRAS G12C measured by mass spectrometry (RapidFire/TOF or Q-Exactive). It counts as binding. To be noted: covalent binding to (modification of) KRAS G12C after a ten minute incubation period. In short, it runs like this: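 Intact-mass readout (TOF or Q-Exactive, charge-envelope deconvolution) gives percent covalent adduct from modified and unmodified species. Compound at 10, 30 or 100 μM was incubated at room temperature for 10 min to 24 h with 2 μM or 0.5 μM GDP-bound KRAS G12C 1-169 in Hepes/NaCl/MgCl2 buffer, then acid-quenched.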
For `C=CC(=O)N1C[C@H](C)N(c2nc(N3CC(N(C)C)C3)nc3c(F)c(-c4ccc(F)c5cnn(C6CC6)c45)c(Cl)cc23)C[C@H]1C` (atropisomer, axis not shown) [Compound 218, 1-((2R,5S)-4-((R)-6-chloro-7-(1-cyclopropyl-4-fluoro-1H-indazol-7-yl)-2-(3-(dimethylamino)azetidin-1-yl)-8-fluoroquinazolin-4-yl)-2,5-dimethylpiperazin-1-yl)prop-2-en-1-one], the Binding % result is reported as “+++ (+++ indicates binding activity greater than 80%)”.
Take `C=CC(=O)N1C[C@H](C)N(c2nc(Nc3cnn(C)c3)nc3c(F)c(-c4c(C)ccc5onc(N)c45)c(Cl)cc23)C[C@H]1C` [Compound 74, 1-((2R,5S)-4-(7-(3-amino-5-methylbenzo[d]osoxa-zol-4-yl)-6-chloro-8-fluoro-2-(1-methyl-1H-pyrazol-4-ylamino)quinazolin-4-yl)-2,5-dimethylpiperazin-1-yl)prop-2-en-1-one]: the Binding % entry is “+ (+ indicates binding activity greater than 0% and up to 50%)”.
With `C=CC(=O)N1C[C@@H](C)N(c2nc(N3CC(N(C)C)C3)nc3c(F)c(-c4c(C)ccc5cnn(C)c45)c(Cl)cc23)C[C@@H]1C` (atropisomer, axis not shown) [Compound 246, 1-((2S,5R)-4-((R)-6-chloro-7-(1,6-dimethyl-1H-indazol-7-yl)-2-(3-(dimethylamino)azetidin-1-yl)-8-fluoroquinazolin-4-yl)-2,5-dimethylpiperazin-1-yl)prop-2-en-1-one], the Binding % entry is “+ (+ indicates binding activity greater than 0% and up to 50%)”.
For the molecule `C=CC(=O)N1C[C@H](C)N(c2nc(C#CCN(C)C)nc3c(F)c(-c4c(C)ccc5[nH]nc(C6CC6)c45)c(Cl)cc23)C[C@H]1C` [Compound 240, 1-((2R,5S)-4-(6-chloro-7-(3-cyclopropyl-5-methyl-1H-indazol-4-yl)-2-(3-(dimethylamino)prop-1-ylnyl)-8-fluoroquinazolin-4-yl)-2,5-dimethylpiperazin-1-yl)prop-2-en-1-one], the Binding % entry is “+ (+ indicates binding activity greater than 0% and up to 50%)”.
Turning to `C=CC(=O)N1C[C@H](C)N(c2nc(N3CC(N(C)C)C3)nc3c(F)c(-c4c(C)ccc5[nH]nc(C(F)(F)F)c45)c(Cl)cc23)C[C@H]1C` [Compound 115, 1-((2R,5S)-4-(6-chloro-2-(3-(dimethylamino)azetidin-1-yl)-8-fluoro-7-(5-methyl-3-(trifluoromethyl)-1H-indazol-4-yl)quinazolin-4-yl)-2,5-dimethylpiperazin-1-yl)prop-2-en-1-one], the Binding % result was “+ (+ indicates binding activity greater than 0% and up to 50%)”.
Next, `C=CC(=O)N1C[C@H](C)N(c2nc(OCC(C)(C)N(C)C)nc3c(F)c(-c4c(C)ccc5cnn(C6CC6)c45)c(Cl)cc23)C[C@H]1C` [Compound 215, 1-((2R,5S)-4-(6-chloro-7-(1-cyclopropyl-6-methyl-1H-indazol-7-yl)-2-(2-(dimethylamino)-2-methylpropoxy)-8-fluoroquinazolin-4-yl)-2,5-dimethylpiperazin-1-yl)prop-2-en-1-one]: “+++ (+++ indicates binding activity greater than 80%)”.
Take `C=CC(=O)N1C[C@H](C)N(c2nc(N3CC(N(C)C)C3)nc3c(F)c(-c4c(C)ccc5[nH]nc(NC(C)C)c45)c(Cl)cc23)C[C@H]1C` [Compound 39, 1-((2R,5S)-4-(6-chloro-2-(3-(dimethylamino)azetidin-1-yl)-8-fluoro-7-(3-(isopropylamino)-5-methyl-1H-indazol-4-yl)quinazolin-4-yl)-2,5-dimethylpiperazin-1-yl)prop-2-en-1-one]: the Binding % result was “+ (+ indicates binding activity greater than 0% and up to 50%)”.
On to `C=CC(=O)N1C[C@H](C)N(c2nc(NC3CCN(C4CC4)CC3)nc3c(F)c(-c4c(C)ccc5[nH]nc(C6CC6)c45)c(Cl)cc23)C[C@H]1C` (atropisomer, axis not shown) [Compound 111, 1-((2R,5S)-4-((R)-6-chloro-7-(3-cyclopropyl-5-methyl-1H-indazol-4-yl)-2-(1-cyclopropylpiperidin-4-ylamino)-8-fluoroquinazolin-4-yl)-2,5-dimethylpiperazin-1-yl)prop-2-en-1-one], for which the Binding % entry is given as “++ (++ indicates binding activity from 50 to 80%)”.
Turning to `C=CC(=O)N1C[C@H](C)N(c2nc(N3CC(N(C)C)C3)nc3c(F)c(-c4c(C)ccc5c(Cl)nn(C)c45)c(Cl)cc23)C[C@H]1C` [Compound 195, 1-((2R,5S)-4-(6-chloro-7-(3-chloro-1,6-dimethyl-1H-indazol-7-yl)-2-(3-(dimethylamino)azetidin-1-yl)-8-fluoroquinazolin-4-yl)-2,5-dimethylpiperazin-1-yl)prop-2-en-1-one], the Binding % result was “+ (+ indicates binding activity greater than 0% and up to 50%)”.
With `C=CC(=O)N1C[C@H](C)N(c2nc(N3CC(N(C)C)C3)nc3c(F)c(-c4c(F)ccc5cnn(C6CC6)c45)c(Cl)cc23)C[C@H]1C` (atropisomer, axis not shown) [Compound 201, 1-((2R,5S)-4-((S)-6-chloro-7-(1-cyclopropyl-6-fluoro-1H-indazol-7-yl)-2-(3-(dimethylamino)azetidin-1-yl)-8-fluoroquinazolin-4-yl)-2,5-dimethylpiperazin-1-yl)prop-2-en-1-one], the Binding % entry was “+++ (+++ indicates binding activity greater than 80%)”.
On to `C=CC(=O)N1C[C@H](C)N(c2nc(OCCN3CC(F)(F)C3)nc3c(F)c(-c4c(C)ccc5[nH]nc(C6CC6)c45)c(Cl)cc23)C[C@H]1C` (atropisomer, axis not shown) [Compound 121, 1-((2R,5S)-4-((S)-6-chloro-7-(3-cyclopropyl-5-methyl-1H-indazol-4-yl)-2-(2-(3,3-difluoroazetidin-1-yl)ethoxy)-8-fluoroquinazolin-4-yl)-2,5-dimethylpiperazin-1-yl)prop-2-en-1-one], for which the Binding % entry was “+ (+ indicates binding activity greater than 0% and up to 50%)”.
`C=CC(=O)N1C[C@@H](C)N(c2nc(N3CC(N(C)C)C3)nc3c(F)c(-c4c(C)ccc5cnn(C)c45)c(Cl)cc23)C[C@H]1C` (atropisomer, axis not shown) [Compound 243, 1-((2R,5R)-4-((R)-6-chloro-7-(1,6-dimethyl-1H-indazol-7-yl)-2-(3-(dimethylamino)azetidin-1-yl)-8-fluoroquinazolin-4-yl)-2,5-dimethylpiperazin-1-yl)prop-2-en-1-one]: the Binding % result is “+++ (+++ indicates binding activity greater than 80%)”.
Consider `C=CC(=O)N1C[C@H](C)N(c2nc(N3CC(N(C)C)C3)nc3c(F)c(-c4c(C)ccc5[nH]nc(NC)c45)c(Cl)cc23)C[C@H]1C` [Compound 13, 1-((2R,5S)-4-(6-chloro-2-(3-(dimethylamino)azetidin-1-yl)-8-fluoro-7-(5-methyl-3-(methylamino)-1H-indazol-4-yl)quinazolin-4-yl)-2,5-dimethylpiperazin-1-yl)prop-2-en-1-one], for which the Binding % result is “++ (++ indicates binding activity from 50 to 80%)”.
In the case of `C=CC(=O)N1C[C@H](C)N(c2nc(OC[C@H]3CN(C)CCO3)nc3c(F)c(-c4c(C)ccc5[nH]nc(C6CC6)c45)c(Cl)cc23)C[C@H]1C` [Compound 189, 1-((2R,5S)-4-(6-chloro-7-(3-cyclopropyl-5-methyl-1H-indazol-4-yl)-8-fluoro-2-(((R)-4-methylmorpholiln-2-yl)methoxy)quinazolin-4-yl)-2,5-dimethylpiperazin-1-yl)prop-2-en-1-one], the Binding % result is reported as “+++ (+++ indicates binding activity greater than 80%)”.
For the molecule `C=CC(=O)N1C[C@H](C)N(c2nc(N3CC(NC)C3)nc3c(F)c(-c4c(C)ccc5cnn(C6CC6)c45)c(Cl)cc23)C[C@H]1C` (atropisomer, axis not shown) [Compound 208, 1-((2R,5S)-4-((R)-6-chloro-7-(1-cyclopropyl-6-methyl-1H-indazol-7-yl)-8-fluoro-2-(3-(methylamino)azetidin-1-yl)quinazolin-4-yl)-2,5-dimethylpiperazin-1-yl)prop-2-en-1-one], the Binding % entry is “+++ (+++ indicates binding activity greater than 80%)”.
On to `C=CC(=O)N1C[C@H](C)N(c2nc(OC[C@H]3COCCN3C)nc3c(F)c(-c4c(C)ccc5[nH]nc(C)c45)c(Cl)cc23)C[C@H]1C` [Compound 181, 1-((2R,5S)-4-(6-chloro-7-(3,5-dimethyl-1H-indazol-4-yl)-8-fluoro-2-(((R)-4-methylmorpholin-3-yl)methoxy)quinazolin-4-yl)-2,5-dimethylpiperazin-1-yl)prop-2-en-1-one], for which the Binding % result is “+ (+ indicates binding activity greater than 0% and up to 50%)”.
`C=CC(=O)N1C[C@H](C)N(c2nc(OC3CCN(C(C)C)CC3)nc3c(F)c(-c4c(C)ccc5cnn(C)c45)c(Cl)cc23)C[C@H]1C` (atropisomer, axis not shown) [Compound 166, 1-((2R,5S)-4-((S)-6-chloro-7-(1,6-dimethyl-1H-indazol-7-yl)-8-fluoro-2-(1-isopropylpiperidin-4-yloxy)quinazolin-4-yl)-2,5-dimethylpiperazin-1-yl)prop-2-en-1-one]: the Binding % result is “+ (+ indicates binding activity greater than 0% and up to 50%)”.
For the molecule `C=CC(=O)N1C[C@H](C)N(c2nc(OCCN3CCCC3)nc3c(F)c(-c4c(C)ccc5[nH]nc(N)c45)c(Cl)cc23)C[C@H]1C` [Compound 49, 1-((2R,5S)-4-(7-(3-amino-5-methyl-1H-indazol-4-yl)-6-chloro-8-fluoro-2-(2-(pyrrolidin-1-yl)ethoxy)quinazolin-4-yl)-2,5-dimethylpiperazin-1-yl)prop-2-en-1-one], the Binding % result is reported as “+++ (+++ indicates binding activity greater than 80%)”.
